The text below walks through data of patent US9637453B2, “3-spirocyclic-6-hydroxamic acid tetralins as HDAC inhibitors” (Forma Therapeutics, Inc., priority 2015, dated 2017).

Each structure is given as a SMILES string.

The target of assay [1] is T1, Full length human recombinant HDAC11 (Homo sapiens, UniProt Q96DB2).
T1 construct: Full length human recombinant HDAC6 and HDAC11 proteins were expressed in baculoviral system
T1 sequence (Q96DB2 1-347): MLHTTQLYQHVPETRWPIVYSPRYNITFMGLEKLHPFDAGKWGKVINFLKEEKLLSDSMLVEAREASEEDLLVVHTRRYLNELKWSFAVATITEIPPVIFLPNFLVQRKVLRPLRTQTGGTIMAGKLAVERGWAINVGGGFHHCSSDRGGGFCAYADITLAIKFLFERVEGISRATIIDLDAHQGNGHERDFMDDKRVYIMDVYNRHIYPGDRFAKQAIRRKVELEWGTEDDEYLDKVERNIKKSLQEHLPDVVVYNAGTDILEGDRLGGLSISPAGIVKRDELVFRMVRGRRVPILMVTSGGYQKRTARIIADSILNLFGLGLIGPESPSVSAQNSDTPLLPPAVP
In words: In vitro histone deacetylase assay, enzymatic HDAC11 (electrophoretic mobility shift assay). It is filed as biochemical. The note with it: 10 nM HDAC11; 2 μM peptide substrate FAM-RHKK(tri-fluor-Ac)—NH2; 25° C.; 12 concentrations; read-out: HDAC11 Activity Range (IC50). In a few lines: (§1)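 Baculovirus-expressed full-length enzymes (HDAC6 1 nM, FAM-RHKK(Ac)-NH2; HDAC11 10 nM, FAM-RHKK(tri-fluor-Ac)-NH2), 2 μM substrate, HEPES pH 7.5, 25°C, 12-point 3× dilutions. Product/substrate separated by microfluidic mobility shift after SDS quench; IC50 from 4-parameter fit, reported as +/++/+++ bins.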

The target of assay [2] is T2, Full length human recombinant HDAC6 (Homo sapiens, UniProt Q9UBN7).
T2 construct: Full length human recombinant HDAC6 and HDAC11 proteins were expressed in baculoviral system
T2 sequence (Q9UBN7 1-1215): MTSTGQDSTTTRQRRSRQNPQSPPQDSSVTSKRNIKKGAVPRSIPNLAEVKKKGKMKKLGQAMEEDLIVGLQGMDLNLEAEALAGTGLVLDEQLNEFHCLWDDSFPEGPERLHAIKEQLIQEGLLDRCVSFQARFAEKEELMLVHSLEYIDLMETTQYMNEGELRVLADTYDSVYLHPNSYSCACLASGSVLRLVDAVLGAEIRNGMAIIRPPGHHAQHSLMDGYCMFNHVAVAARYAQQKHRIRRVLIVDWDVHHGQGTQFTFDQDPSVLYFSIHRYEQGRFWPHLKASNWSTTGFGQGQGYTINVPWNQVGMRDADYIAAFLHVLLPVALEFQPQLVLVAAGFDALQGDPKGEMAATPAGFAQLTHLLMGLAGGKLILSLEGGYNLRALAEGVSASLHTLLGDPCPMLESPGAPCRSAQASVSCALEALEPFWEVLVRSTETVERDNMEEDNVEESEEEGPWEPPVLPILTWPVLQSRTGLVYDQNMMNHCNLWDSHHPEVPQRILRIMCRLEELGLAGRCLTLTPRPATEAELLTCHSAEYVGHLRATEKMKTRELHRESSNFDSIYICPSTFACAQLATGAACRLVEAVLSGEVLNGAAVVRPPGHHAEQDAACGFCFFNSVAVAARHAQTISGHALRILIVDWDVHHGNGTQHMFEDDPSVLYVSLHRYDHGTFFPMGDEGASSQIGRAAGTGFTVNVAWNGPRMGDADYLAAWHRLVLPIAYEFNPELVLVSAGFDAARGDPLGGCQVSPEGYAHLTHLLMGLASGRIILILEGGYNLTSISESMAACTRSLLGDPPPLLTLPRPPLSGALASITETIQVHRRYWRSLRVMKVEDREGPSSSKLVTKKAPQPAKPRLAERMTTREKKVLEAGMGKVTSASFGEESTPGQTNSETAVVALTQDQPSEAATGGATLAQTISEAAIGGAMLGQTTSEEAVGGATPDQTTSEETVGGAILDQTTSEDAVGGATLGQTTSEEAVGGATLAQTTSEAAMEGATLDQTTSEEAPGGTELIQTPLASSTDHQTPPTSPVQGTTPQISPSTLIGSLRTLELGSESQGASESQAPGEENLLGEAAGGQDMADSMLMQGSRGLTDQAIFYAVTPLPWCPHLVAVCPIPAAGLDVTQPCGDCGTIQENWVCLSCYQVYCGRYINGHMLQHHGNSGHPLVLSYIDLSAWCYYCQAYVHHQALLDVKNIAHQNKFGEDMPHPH
In words: In vitro histone deacetylase assay, enzymatic HDAC6 (electrophoretic mobility shift assay). It counts as biochemical. The settings on record: 1 nM HDAC6; 2 μM peptide substrate FAM-RHKK(Ac)—NH2; 25° C.; 12 concentrations; read-out: HDAC6 Activity Range (IC50). In a few lines: as §1

A word on the IC50: it is the concentration that inhibits the measured activity by half. In the case of `O=C(NO)c1ccc2c(c1)C[C@]1(CC2)CCN(CCCO)C1=O` [Compound I-80, (R)—N-hydroxy-1′-(3-hydroxypropyl)-2′-oxo-3,4-dihydro-1H-spiro[naphthalene-2,3′-pyrrolidine]-7-carboxamide], the IC50 in assay [1] was greater than 500 nM; in assay [2] it was no more than 100 nM.

Take `O=C(NO)c1ccc2c(c1)C[C@]1(CC2)CCN(c2cnc3ccccn23)C1=O` [Compound I-111, (R)—N-hydroxy-1′-(imidazo[1,2-a]pyridin-3-yl)-2′-oxo-3,4-dihydro-1H-spiro[naphthalene-2,3′-pyrrolidine]-7-carboxamide]: the IC50 was 100 to 500 nM in assay [1] and no more than 100 nM in assay [2].

For the compound `O=C(NO)c1ccc2c(c1)C[C@@]1(CC2)CCN(Cc2ccccc2OC(F)F)C1=O` [Compound I-78, (S)-1′-(2-(difluoromethoxy)benzyl)-N-hydroxy-2′-oxo-3,4-dihydro-1H-spiro[naphthalene-2,3′-pyrrolidine]-7-carboxamide], the IC50 in assay [1] was greater than 500 nM; in assay [2] it was no more than 100 nM.

As to `CCCN1CC[C@]2(CCc3ccc(C(=O)NO)cc3C2)C1=O` [Compound I-79, (R)—N-hydroxy-2′-oxo-1′-propyl-3,4-dihydro-1H-spiro[naphthalene-2,3′-pyrrolidine]-7-carboxamide], the IC50 in assay [1] is greater than 500 nM; in assay [2], no more than 100 nM.

In the case of `O=C(NO)c1ccc2c(c1)C[C@@]1(CC2)CC(=O)N(CC2CCC2)C1` [Compound I-134, (S)-1′-(cyclobutylmethyl)-N-hydroxy-5′-oxo-3,4-dihydro-1H-spiro[naphthalene-2,3′-pyrrolidine]-7-carboxamide], the figures for the IC50 in assay [1] and in assay [2] were greater than 500 nM and no more than 100 nM, respectively.

On to `O=C(NO)c1ccc2c(c1)C[C@]1(CC2)CCN(Cc2cccc(F)c2)C1=O` [Compound I-99, (R)-1′-(3-fluorobenzyl)-N-hydroxy-2′-oxo-3,4-dihydro-1H-spiro[naphthalene-2,3′-pyrrolidine]-7-carboxamide], for which the IC50 in assay [1] and in assay [2] was no more than 100 nM throughout.

Consider `COc1ccccc1CN1CC[C@]2(CCc3ccc(C(=O)NO)cc3C2)C1=O` [Compound I-93, (R)—N-hydroxy-1′-(2-methoxybenzyl)-2′-oxo-3,4-dihydro-1H-spiro[naphthalene-2,3′-pyrrolidine]-7-carboxamide], for which the half-maximal inhibitory concentration (IC50) was 100 to 500 nM in assay [1] and no more than 100 nM in assay [2].

With `CC(C)N1CCC2(CCc3ccc(C(=O)NO)cc3C2)C1=O` (stereo not shown) [Compound I-24, N-hydroxy-1′-isopropyl-2′-oxo-3,4-dihydro-1H-spiro[naphthalene-2, 3′-pyrrolidine]-7-carboxamide], the IC50 in assay [1] was greater than 500 nM; in assay [2] it was 100 to 500 nM.

For the compound `O=C(NO)c1ccc2c(c1)OC1(CC2)CCN(C2CCCCC2)CC1` [II-6, 1′-cyclohexyl-N-hydroxyspiro[chroman-2,4′-piperidine]-7-carboxamide], the IC50 in assay [1] was no more than 100 nM; in assay [2] it was 100 to 500 nM.

As for `O=C(NO)c1ccc2c(c1)C[C@@]1(CC2)CCN(Cc2ccc(OC(F)(F)F)cc2)C1=O` [Compound I-73, (S)—N-hydroxy-2′-oxo-1′-(4-(trifluoromethoxy)benzyl)-3,4-dihydro-1H-spiro[naphthalene-2,3′-pyrrolidine]-7-carboxamide], the figures for the 50% inhibitory concentration (IC50) in assay [1] and in assay [2] were greater than 500 nM and no more than 100 nM, respectively.

For the compound `CC(C)CN1C[C@]2(CCc3ccc(C(=O)NO)cc3C2)CC1=O` [Compound I-138, (S)—N-hydroxy-1′-isobutyl-5′-oxo-3,4-dihydro-1H-spiro[naphthalene-2,3′-pyrrolidine]-7-carboxamide], the values for the IC50 in assay [1] and in assay [2] were greater than 500 nM and no more than 100 nM, respectively.

Turning to `O=C(NO)c1ccc2c(c1)C[C@]1(CC2)CCN(Cc2cc(Cl)ccc2Cl)C1=O` [Compound I-94, (R)-1′-(2,5-dichlorobenzyl)-N-hydroxy-2′-oxo-3,4-dihydro-1H-spiro[naphthalene-2,3′-pyrrolidine]-7-carboxamide], the IC50 in assay [1] and in assay [2] was no more than 100 nM each time.

As to `CCCN1CC[C@@]2(CCc3ccc(C(=O)NO)cc3C2)C1=O` [Compound I-52, (S)—N-hydroxy-2′-oxo-1′-propyl-3,4-dihydro-1H-spiro[naphthalene-2,3′-pyrrolidine]-7-carboxamide], the IC50 in assay [1] was greater than 500 nM; in assay [2] it was no more than 100 nM.

As for `O=C(NO)c1ccc2c(c1)C[C@@]1(CC2)CC(=O)N(Cc2ccc(F)cc2)C1` [Compound I-129, (S)-1′-(4-fluorobenzyl)-N-hydroxy-5′-oxo-3,4-dihydro-1H-spiro[naphthalene-2,3′-pyrrolidine]-7-carboxamide], the IC50 is greater than 500 nM in assay [1] and no more than 100 nM in assay [2].

As to `O=C(NO)c1ccc2c(c1)OC1(CC2)CCN(C(=O)Nc2ccccc2)CC1` [II-4, N7-hydroxy-N1′-phenylspiro[chroman-2,4′-piperidine]-1′,7-dicarboxamide], the results for the IC50 in assay [1] and in assay [2] were greater than 500 nM and no more than 100 nM, respectively.

On to `COc1ccccc1CN1CC[C@@]2(CCc3ccc(C(=O)NO)cc3C2)C1=O` [Compound I-65, (S)—N-hydroxy-1′-(2-methoxybenzyl)-2′-oxo-3,4-dihydro-1H-spiro[naphthalene-2,3′-pyrrolidine]-7-carboxamide], for which the IC50 in assay [1] was greater than 500 nM; in assay [2], no more than 100 nM.

Take `COCCn1c(CN2CC[C@@]3(CCc4ccc(C(=O)NO)cc4C3)C2=O)nc2ccccc21` [Compound I-45, (S)—N-hydroxy-1′-((1-(2-methoxyethyl)-1H-benzo[d]imidazol-2-yl)methyl)-2′-oxo-3,4-dihydro-1H-spiro[naphthalene-2,3′-pyrrolidine]-7-carboxamide]: the IC50 in assay [1] is greater than 500 nM; in assay [2], no more than 100 nM.

Take `O=C(NO)c1ccc2c(c1)C[C@]1(CC2)CCN(Cc2c(Cl)cccc2Cl)C1=O` [Compound I-95, (R)-1′-(2,6-dichlorobenzyl)-N-hydroxy-2′-oxo-3,4-dihydro-1H-spiro[naphthalene-2,3′-pyrrolidine]-7-carboxamide]: the results for the IC50 in assay [1] and in assay [2] were greater than 500 nM and no more than 100 nM, respectively.

In the case of `O=C(NO)c1ccc2c(c1)C[C@]1(CC2)CCN(Cc2ccc3ccccc3c2)C1=O` [Compound I-104, (R)—N-hydroxy-1′-(naphthalen-2-ylmethyl)-2′-oxo-3,4-dihydro-1H-spiro[naphthalene-2,3′-pyrrolidine]-7-carboxamide], the IC50 in assay [1] and in assay [2] was no more than 100 nM each time.

In the case of `O=C(NO)c1ccc2c(c1)C[C@@]1(CC2)CCN(Cc2ccc(Cl)cn2)C1=O` [Compound I-39, (S)-1′-((5-chloropyridin-2-yl)methyl)-N-hydroxy-2′-oxo-3,4-dihydro-1H-spiro[naphthalene-2,3′-pyrrolidine]-7-carboxamide], the IC50 in assay [1] is greater than 500 nM; in assay [2] it was no more than 100 nM.
